Data from patent US7875587B2, “Peptide analogues of GIP for treatment of diabetes, insulin resistance and obesity” (UUTECH Limited, priority 2004, dated 2011).
Starred links: 1 amine or outer side, 2 acyl side, 3 side chain; linkers in the order of their positions; H or OH if unused. Non-standard residues stand in square brackets, D forms with d. No end group written: not given here. X1 = O=C([C@H](Cc1ccc(O)cc1)N(C[C@H](O)[C@@H](O)[C@H](O)[C@H](O)CO)[*:1])[*:2]; Hyp = O=C(O)[C@@H]1C[C@@H](O)CN1

Legend:
BRIN-BD11 cells [1] = experiment: GIP-stimulated insulin release from BRIN-BD11 cells (antagonism); assay type: cell-based; conditions: 5.6 mM glucose, native GIP 10^-7 M
Description: Tissue culture. […] Cells were maintained in sterile tissue culture flasks (Corning Glass Works, Sunderland, UK) at 37° C. in an atmosphere of 5% CO2 and 95% air using an LEEC incubator (Laboratory Technical Engineering, Nottingham, UK). Acute studies of insulin release. Insulin release from BRIN-BD11 cells was determined using cell monolayers ([…]. et al., 1996, Diabetes 45:1132-1140). Cells were harvested with the aid of trypsin/EDTA (Gibco), seeded into 24-multiwell plates (Nunc, Roskilde, Denmark) at a density of 1.0×10^5 cells per well, and allowed to attach overnight at 37° C.

[2] = Degradation of GIP and analogues by human plasma (HPLC); assay type: in vitro ADME
Description: Degradation of GIP and Tyr^1-glucitol GIP by human plasma. […] […] The reactions were terminated by addition of 5 μl of TFA and the final volume adjusted to 1.0 ml using 0.1% v/v TFA/water. Samples were centrifuged (13,000 g, 5 minutes) and the supernatant applied to a C-18 Sep-Pak cartridge (Millipore-Waters) which was previously primed and washed with 0.1% (v/v) TFA/water. […] The volume was adjusted to 1.0 ml with 0.12% (v/v) TFA/water prior to HPLC purification.
(§1) HPLC analysis of degraded GIP and Tyr^1-glucitol GIP. […] Using 0.1% (v/v) TFA in 70% acetonitrile/H20, the concentration of acetonitrile in the eluting solvent was raised from 0% to 31.5% over 15 min, to 38.5% over 30 minutes and from 38.5% to 70% over 5 minutes, using linear gradients. The absorbance was monitored at 206 nm and peak areas evaluated using a model 2221 LKB integrator. Samples recovered manually were concentrated using a Speed-Vac concentrator.
(§2) Electrospray ionization-mass spectrometry (ESI-MS) was carried out as described in Example 2. Degradation of GIP and novel GIP analogues by DPP IV and human plasma was carried out as described in Example 2.

DPP IV = biological target: T1, DPP IV (Sus scrofa, UniProt P22411); experiment: Degradation of GIP and analogues by DPP IV (HPLC); assay type: in vitro ADME
T1 construct: purchased Sigma (Poole, Dorset, UK)
Description: Degradation of GIP and Tyr^1-glucitol GIP by DPP IV. HPLC-purified GIP or Tyr^1-glucitol GIP were incubated at 37° C. with DPP-IV (5 mU) for various time periods in a reaction mixture made up to 500 μl with 50 mmol/l triethanolamine-HCl, pH 7.8 (final peptide concentration 1 mmol/l). Enzymatic reactions were terminated after 0, 2, 4 and 12 hours by addition of 5 μl of 10% (v/v) TFA/water. Samples were made up to a final volume of 1.0 ml with 0.12% (v/v) TFA and stored at −20° C. prior to HPLC analysis.
as §1, §2

BRIN-BD11 cells [3] = experiment: Acute tests for insulin secretion from BRIN-BD11 cells; assay type: cell-based
Description: Culture of insulin secreting cells. BRIN-BD11 cells were cultured in sterile tissue culture flasks (Corning, Glass Works, UK) using RPMI-1640 tissue culture medium containing 10% (v/v) foetal calf serum, 1% (v/v) antibiotics (100 U/ml penicillin, 0.1 mg/ml streptomycin) and 11.1 mM glucose. The cells were maintained at 37° C. in an atmosphere of 5% CO2 and 95% air using a LEEC incubator (Laboratory Technical Engineering, Nottingham, UK).
Acute tests for insulin secretion. Before experimentation, the cells were harvested from the surface of the tissue culture flasks with the aid of trypsin/EDTA (Gibco), seeded into 24-multiwell plates (Nunc, Roskilde, Denmark) at a density of 1.5×10^5 cells per well, and allowed to attach overnight at 37° C. Acute tests for insulin release were preceded by 40 minutes pre-incubation at 37° C. in 1.0 ml Krebs Ringer bicarbonate buffer (115 mM NaCl, 4.7 mM KCl, 1.28 mM CaCl2, 1.2 mM KH2PO4, 1.2 mM MgSO4, 10 mM NaHCO3, 5 g/l bovine serum albumin, pH 7.4) supplemented with 1.1 mM glucose. Test incubations were performed (n=12) at two glucose concentrations (5.6 mM and 16.7 mM) with a range of concentrations (10^−13 to 10^−8 M) of GIP or GIP analogues. After 20 minutes incubation, the buffer was removed from each well and aliquots (200 μl) were used for measurement of insulin by radioimmunoassay.

Wistar rats = experiment: In vivo plasma glucose and insulin after i.p. glucose with peptide in Wistar rats; design: species or system rat
Description: In vivo biological activity of GIP and Tyr^1-glucitol GIP. Effects of GIP and Tyr^1-glucitol GIP on plasma glucose and insulin concentrations were examined using 10-12 week old male Wistar rats. The animals were housed individually in an air conditioned room and 22±2° C. with a 12 hour light/12 hour dark cycle. Drinking water and a standard rodent maintenance diet (Trouw Nutrition, Belfast, Northern Ireland) were supplied ad libitum. Food was withdrawn for an 18 hour period prior to intraperitoneal injection of glucose alone (18 mmol/kq body weight) or in combination with either GIP or Tyr^1-glucitol GIP (10 nmol/kg). Test solutions were administered in a final volume of 8 ml/kg body weight. Blood samples were collected at 0, 15, 30 and 60 minutes from the cut tip of the tail of conscious rats into chilled fluoride/heparin microcentrifuge tubes (Sarstedt, Numbrecht, Germany). Samples were centrifuged using a Beckman microcentrifuge for about 30 seconds at 13,000 g. Plasma samples were aliquoted and stored at −20° C. prior to glucose and insulin determinations. All animal studies were done in accordance with the Animals (Scientific Procedures) Act 1986.
Analyses. Plasma glucose was assayed by an automated glucose oxidase procedure using a Beckman Glucose Analyzer II [33]. Plasma insulin was determined by dextran charcoal radioimmunoassay as described previously. Incremental areas under plasma glucose and insulin area under the curve (AUC) were calculated using a computer program (CAREA) employing the trapezoidal rule with baseline subtraction. Results are expressed as mean±SEM and values were compared using the Student's unpaired t-test.

[4] = 10 nmol/kg i.p. with glucose 18 mmol/kg, rats

T1 sequence (P22411 whole entry): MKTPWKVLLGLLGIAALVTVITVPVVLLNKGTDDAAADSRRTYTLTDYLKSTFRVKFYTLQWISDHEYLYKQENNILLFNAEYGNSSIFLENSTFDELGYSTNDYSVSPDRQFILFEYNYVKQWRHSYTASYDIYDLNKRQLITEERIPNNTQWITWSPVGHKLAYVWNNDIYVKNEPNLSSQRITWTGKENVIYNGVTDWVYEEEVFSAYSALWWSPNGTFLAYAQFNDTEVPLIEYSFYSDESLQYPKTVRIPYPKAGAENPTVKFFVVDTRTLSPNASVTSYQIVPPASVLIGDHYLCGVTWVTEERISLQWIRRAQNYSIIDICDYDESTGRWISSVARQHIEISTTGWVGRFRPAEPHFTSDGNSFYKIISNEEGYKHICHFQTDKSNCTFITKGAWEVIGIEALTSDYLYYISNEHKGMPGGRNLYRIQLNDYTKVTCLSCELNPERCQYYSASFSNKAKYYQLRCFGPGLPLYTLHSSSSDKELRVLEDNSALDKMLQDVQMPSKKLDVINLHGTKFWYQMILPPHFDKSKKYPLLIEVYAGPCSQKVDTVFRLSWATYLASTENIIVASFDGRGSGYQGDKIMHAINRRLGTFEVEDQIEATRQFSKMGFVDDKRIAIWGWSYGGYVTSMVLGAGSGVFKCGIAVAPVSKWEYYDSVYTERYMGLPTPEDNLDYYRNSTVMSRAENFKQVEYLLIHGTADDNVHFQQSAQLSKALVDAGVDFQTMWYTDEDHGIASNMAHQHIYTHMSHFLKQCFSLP

Question: Which “inhibition of GIP-stimulated insulin secretion” value (from here on “inhibition”) (BRIN-BD11 cells [1]) does the source give for “(Hyp^3)GIP: Glu^3-substituted form of GIP (hydroxyproline at position 3) (YA[Hyp]GTFISDYSIAMDKIHQQDFVNWLLAQKGKKNDWKHNITQ)” here?
Answer: inhibited in a dose-dependent fashion

Question: Which “inhibition” value (BRIN-BD11 cells [1]) does the source give for “(Lys^3)GIP: Glu^3-substituted form of GIP (lysine at position 3) (YAKGTFISDYSIAMDKIHQQDFVNWLLAQKGKKNDWKHNITQ)” here?
Answer: inhibited in a dose-dependent fashion

Question: Which “inhibition” value (BRIN-BD11 cells [1]) does the source give for “(Phe^3)GIP: Glu^3-substituted form of GIP (phenylalanine at position 3) (YAFGTFISDYSIAMDKIHQQDFVNWLLAQKGKKNDWKHNITQ)” here?
Answer: inhibited in a dose-dependent fashion

Question: With “(Trp^3)GIP: Glu^3-substituted form of GIP (tryptophan at position 3) (YAWGTFISDYSIAMDKIHQQDFVNWLLAQKGKKNDWKHNITQ)” as the substance, how does the “inhibition” value (BRIN-BD11 cells [1]) read?
Answer: inhibited in a dose-dependent fashion

Question: For “(Tyr^3)GIP: Glu^3-substituted form of GIP (tyrosine at position 3) (YAYGTFISDYSIAMDKIHQQDFVNWLLAQKGKKNDWKHNITQ)”, which “inhibition” value (BRIN-BD11 cells [1]) is on record?
Answer: inhibited in a dose-dependent fashion

Question: Which “inhibition” value (BRIN-BD11 cells [1]) does the source give for “GIP(3-42): N-terminally truncated GIP, main DPP IV metabolite after removal of Tyr^1-Ala^2 (EGTFISDYSIAMDKIHQQDFVNWLLAQKGKKNDWKHNITQ; listed as Homo sapiens)” here?
Answer: inhibited in a dose-dependent fashion

Question: With “[X1]AEGTFISDYSIAMDKIHQQDFVNWLLAQKGKKNDWKHNITQ [Glycated GIP]” as the substance, how does the “% Intact peptide remaining after incubations with human plasma” value ([2]; 0 h) read?
Answer: 100%

Question: And the “effect of DPA on plasma degradation of the peptide” value ([2]; 24 hours in the presence of DPA)?
Answer: complete abolition of degradation

Question: What about the “% Intact peptide remaining after incubations with human plasma” value ([2]; 24 hours in the presence of DPA (diprotin A)) of the same substance?
Answer: 100%

Question: And the “degradation by human plasma” value ([2]; Example 2, 4 hours incubation)?
Answer: did not result in the formation of any detectable degradation fragments

Question: What about the remaining at 2 h, 20 µg/ml ([2]; human, plasma, pH 7.8, 2 h, read-out: % Intact peptide remaining after incubations with human plasma) of the same substance?
Answer: 100%

Question: What about the remaining at 4 h, 20 µg/ml ([2]; human, plasma, pH 7.8, 4 h, read-out: % Intact peptide remaining after incubations with human plasma) of the same substance?
Answer: 100%

Question: What about the remaining at 8 h, 20 µg/ml ([2]; human, plasma, pH 7.8, 8 h, read-out: % Intact peptide remaining after incubations with human plasma) of the same substance?
Answer: 100%

Question: And the remaining at 24 h, 20 µg/ml ([2]; human, plasma, pH 7.8, 24 h, read-out: % Intact peptide remaining after incubations with human plasma)?
Answer: 100%

Question: What about the “stability on incubation with DPP IV” value (DPP IV; Example 2, 2-12 hours incubation) of the same substance?
Answer: remained almost completely intact

Question: What about the “resistance to in vitro degradation with DPP IV relative to native GIP” value (DPP IV; Example 3, summary of Table 1) of the same substance?
Answer: more resistant than native GIP

Question: And the “% Intact peptide remaining after time (h)” value (DPP IV; incubation with DPP IV, 0 h)?
Answer: 100%

Question: And the remaining at 2 h, 1 mmol/l (DPP IV; isolated enzyme dpp iv, pH 7.8, incubation with DPP IV, 2 h, read-out: % Intact peptide remaining after time (h))?
Answer: 100%

Question: And the remaining at 4 h, 1 mmol/l (DPP IV; isolated enzyme dpp iv, pH 7.8, incubation with DPP IV, 4 h, read-out: % Intact peptide remaining after time (h))?
Answer: 100%

Question: What about the remaining at 8 h, 1 mmol/l (DPP IV; isolated enzyme dpp iv, pH 7.8, incubation with DPP IV, 8 h, read-out: % Intact peptide remaining after time (h)) of the same substance?
Answer: 100%

Question: And the remaining at 24 h, 1 mmol/l (DPP IV; isolated enzyme dpp iv, pH 7.8, incubation with DPP IV, 24 h, read-out: % Intact peptide remaining after time (h))?
Answer: 100%

Question: And the “insulin secretion from BRIN-BD11 cells” value (BRIN-BD11 cells [3]; 5.6 and 16.7 mM glucose, 10^-13 to 10^-8 M peptide)?
Answer: considerably greater insulinotropic response compared with native peptide

Question: What about the “insulin-releasing potency relative to GIP” value (BRIN-BD11 cells [3]; glucose-responsive clonal B-cells) of the same substance?
Answer: several orders of magnitude greater than GIP

Question: And the “overall insulin response (AUC) compared with glucose alone” value (Wistar rats; 10 nmol/kg i.p. with glucose)?
Answer: significantly greater

Question: What about the “plasma insulin response (AUC) compared with GIP” value (Wistar rats; 10 nmol/kg i.p. with glucose) of the same substance?
Answer: significantly greater than after GIP

Question: And the “increase of antihyperglycemic action relative to GIP, estimated from AUC” value (Wistar rats; [4])?
Answer: 38%

Question: What about the “increase of insulin-releasing action relative to GIP, estimated from AUC” value (Wistar rats; [4]) of the same substance?
Answer: 62%

Question: What about the “plasma glucose AUC compared to GIP” value (Wistar rats; 10 nmol/kg i.p. with glucose, vs GIP) of the same substance?
Answer: significantly lower

Question: And the “plasma glucose concentrations and AUC compared with control group” value (Wistar rats; 10 nmol/kg i.p. with glucose, vs glucose alone, 0-60 min)?
Answer: significantly lower
